In publication PMC3943433 (Journal of medicinal chemistry, 2013):
Read-outs that look alike come from different tables or passages of the source.

Legend:
SHV-1 β-lactamase [1] = target: T1, SHV-1 β-lactamase (Klebsiella pneumoniae, UniProt P0AD64)
SHV K234R β-lactamase [2] = target: T2, SHV K234R β-lactamase (Klebsiella pneumoniae, UniProt P0AD64, K230R); assay: Far-UV circular dichroism and thermal denaturation in the presence of inhibitors; settings: for ΔHVH: K234R 10 µM with 50 µM inhibitor, van't Hoff plot; for effect on secondary structure (far UV CD): K234R 10 µM, 50 µM inhibitor
SHV K234R β-lactamase [3] = target: T2, SHV K234R β-lactamase; assay: Ki by direct competition assay with nitrocefin; type: biochemical; settings: for fold lower Ki for K234R relative to SHV-1: K234R vs SHV-1
SHV-1 β-lactamase [4] = target: T1, SHV-1 β-lactamase; type: biochemical
SHV K234R β-lactamase [5] = target: T2, SHV K234R β-lactamase; assay: Steady-state kinetics with β-lactam substrates; type: biochemical; settings: K234R relative to SHV-1, from kcat/Km (eq 3)
[6] = system: E. coli DH10B expressing blaSHV K234X (other 16 amino acid substitutions); assay: MIC by Mueller-Hinton agar dilution; type: cell-based; settings: Escherichia coli, E. coli blaSHV K234X (other 16 substitutions); β-lactam alone
[7] = system: CC(=O)OCC1=C(C(=O)O)N2C(=O)[C@@H](NC(=O)Cc3cccs3)[C@H]2SC1; assay: Steady-state kinetics with β-lactam substrates; type: biochemical, Klebsiella pneumoniae; settings: other: SHV-1, substrate, 10 mM PBS pH 7.4, room temperature
[8] = system: CCN1CCN(C(=O)N[C@@H](C(=O)N[C@@H]2C(=O)N3[C@@H]2SC(C)(C)[C@@H]3C(=O)O)c2ccccc2)C(=O)C1=O; assay: Steady-state kinetics with β-lactam substrates; type: biochemical, Klebsiella pneumoniae; settings: other: SHV-1, substrate, 10 mM PBS pH 7.4, room temperature
[9] = system: O=C(Cc1cccs1)N[C@@H]1C(=O)N2C(C(=O)O)=C(/C=C/c3ccc([N+](=O)[O-])cc3[N+](=O)[O-])CS[C@H]12; assay: Steady-state kinetics with β-lactam substrates; type: biochemical, Klebsiella pneumoniae; settings: other: SHV-1, substrate, 10 mM PBS pH 7.4, room temperature
[10] = system: E. coli DH10B expressing blaSHV K234R; type: cell-based; settings: inhibitor in the presence of 50 µg/mL ampicillin
[11] = system: E. coli DH10B expressing blaSHV-1; assay: MIC by Mueller-Hinton agar dilution; type: cell-based; settings: E. coli blaSHV-1; inhibitor in the presence of 50 µg/mL ampicillin
[12] = system: E. coli DH10B expressing blaSHV K234A; type: cell-based; settings: inhibitor in the presence of 50 µg/mL ampicillin
E. coli DH10B = type: cell-based; settings: inhibitor in the presence of 50 µg/mL ampicillin
[13] = SHV-1 10 µM with 50 µM inhibitor, van't Hoff plot

Q: What does the source list for `O=C(Cc1cccs1)NCB(O)O` [Achiral Cephalothin BATSI]?
A: ΔHVH (SHV-1 β-lactamase [1]; [13]): 160 kcal/mol; ΔHVH (SHV K234R β-lactamase [2]): 100 kcal/mol; effect on secondary structure (far UV CD) (SHV K234R β-lactamase [2]): affect the secondary structure

Q: For `N[C@@H](C(=O)N[C@@H](Cc1cccc(C(=O)O)c1)B(O)O)c1ccccc1` [Chiral Ampicillin BATSI], which “fold lower Ki for K234R relative to SHV-1” value (SHV K234R β-lactamase [3]) is on record?
A: 23 fold

Q: And the ΔHVH (SHV-1 β-lactamase [1]; [13])?
A: 143 kcal/mol

Q: And the ΔHVH (SHV K234R β-lactamase [2])?
A: 119 kcal/mol

Q: And the “increase of melting temperature” value (SHV K234R β-lactamase [2]; K234R with inhibitor vs apo)?
A: 6.6 °C

Q: Which results are given for `O=C(Cc1cccs1)N[C@@H](Cc1cccc(C(=O)O)c1)B(O)O` [Chiral Cephalothin BATSI]?
A: fold difference in Ki, achiral vs chiral cephalothin BATSI (SHV K234R β-lactamase [3]; K234R): 5000 fold; fold lower Ki for K234R relative to SHV-1 (SHV K234R β-lactamase [3]): 38 fold; fold lower Ki than the achiral BATSI (SHV-1 β-lactamase [4]): 44 fold

Q: With `O=C(O)[C@H]1/C(=C/CO)O[C@@H]2CC(=O)N21` [Clavulanate, clavulanate] as the compound, how does the “effect on secondary structure (far UV CD)” value (“effect” for short) (SHV-1 β-lactamase [1]) read?
A: affects the secondary structure of both enzymes

Q: And the ΔHVH (SHV-1 β-lactamase [1])?
A: 113 kcal/mol

Q: And the ΔΔGu (SHV-1 β-lactamase [1])?
A: +0.28 kcal/mol

Q: And the ΔHVH (SHV K234R β-lactamase [2])?
A: 68 kcal/mol

Q: And the “effect” value (SHV K234R β-lactamase [2])?
A: affects the secondary structure of both enzymes

Q: With `O=C(Cc1cccs1)N[C@@H]1C(=O)N2C(C(=O)O)=C(/C=C/c3ccc([N+](=O)[O-])cc3[N+](=O)[O-])CS[C@H]12` [Nitrocefin, nitrocefin] as the compound, how does the ΔΔGcat (SHV K234R β-lactamase [5]) read?
A: +0.70 kcal/mol

Q: How did the “effect” value (SHV-1 β-lactamase [1]) turn out when `CC1(C)[C@H](C(=O)O)N2C(=O)C[C@H]2S1(=O)=O` [Sulbactam, sulbactam] was run?
A: not SHV-1

Q: And the ΔHVH (SHV-1 β-lactamase [1])?
A: 183 kcal/mol

Q: What about the ΔΔGu (SHV-1 β-lactamase [1]) of the same compound?
A: +0.07 kcal/mol

Q: What about the “effect” value (SHV K234R β-lactamase [2]) of the same compound?
A: affect the secondary structure

Q: With `C[C@]1(Cn2ccnn2)[C@H](C(=O)O)N2C(=O)C[C@H]2S1(=O)=O` [Tazobactam, tazobactam] as the compound, how does the ΔHVH (SHV-1 β-lactamase [1]; [13]) read?
A: 149 kcal/mol

Q: What about the “effect” value (SHV-1 β-lactamase [1]; SHV-1 10 µM, 50 µM inhibitor) of the same compound?
A: not SHV-1

Q: What about the ΔHVH (SHV K234R β-lactamase [2]) of the same compound?
A: 114 kcal/mol

Q: And the “effect” value (SHV K234R β-lactamase [2])?
A: affect the secondary structure

Q: For `CC1(C)S[C@@H]2[C@H](NC(=O)[C@H](N)c3ccccc3)C(=O)N2[C@H]1C(=O)O` [amp, ampicillin], which MIC [6] is on record?
A: ≤ 4 µg/mL

Q: What does the source list for `CCN1CCN(C(=O)N[C@@H](C(=O)N[C@@H]2C(=O)N3[C@@H]2SC(C)(C)[C@@H]3C(=O)O)c2ccccc2)C(=O)C1=O` [pip, piperacillin]?
A: ΔΔGcat (SHV K234R β-lactamase [5]): +0.33 kcal/mol; MIC [6]: ≤ 8 µg/mL

Q: How did the ΔΔGcat (SHV K234R β-lactamase [5]) turn out when `CC(=O)OCC1=C(C(=O)O)N2C(=O)[C@@H](NC(=O)Cc3cccs3)[C@H]2SC1` [thin, cephalothin] was run?
A: +1.00 kcal/mol

Q: What does the source list for “SHV-1 β-lactamase (Klebsiella pneumoniae)”?
A: Km [7]: 48.9 ± 11.2 µM; kcat [7]: 42.6 ± 3.4 s⁻¹; kcat/Km [7]: 870000 ± 300000 M⁻¹ s⁻¹; Km [8]: 74.6 ± 11.7 µM; kcat [8]: 1180 ± 65 s⁻¹; kcat/Km [8]: 1.58e+07 ± 600000 M⁻¹ s⁻¹; Km [9]: 24.7 ± 5 µM; kcat [9]: 348 ± 21.5 s⁻¹; kcat/Km [9]: 1.41e+07 ± 220000 M⁻¹ s⁻¹

Q: For ampicillin/clavulanate [amp/ clav], which MIC [10] is on record?
A: 16 µg/mL

Q: What about the MIC [11] of the same compound?
A: 4 µg/mL

Q: And the MIC [12]?
A: <0.06 µg/mL

Q: And the MIC (E. coli DH10B)?
A: <0.06 µg/mL

Q: With ampicillin/sulbactam [amp/ sul] as the compound, how does the MIC [10] read?
A: 64 µg/mL

Q: What about the MIC [11] of the same compound?
A: 512 µg/mL

Q: What about the MIC [12] of the same compound?
A: <0.06 µg/mL

Q: What about the MIC (E. coli DH10B) of the same compound?
A: <0.06 µg/mL

Q: ampicillin/tazobactam [amp/ tazo] was tested. Which MIC [10] did it give?
A: 16 µg/mL

Q: What about the MIC [11] of the same compound?
A: 128 µg/mL

Q: And the MIC [12]?
A: <0.06 µg/mL

Q: What about the MIC (E. coli DH10B) of the same compound?
A: <0.06 µg/mL
